Measurements taken from ChEMBL document CHEMBL1158753, “Ammodendrine and N-methylammodendrine enantiomers: isolation, optical rotation, and toxicity” (J Nat Prod, 2005).

Experiment: […] against iv dosed Swiss-Webster mouse
Assay type: organism-based
Details: in vivo
With `CC(=O)N1C=C([C@@H]2CCCCN2)CCC1` the LD50 was 115 mg/kg.
Compound `CC(=O)N1C=C([C@@H]2CCCCN2C)CCC1` has an LD50 of 63.4 mg/kg.
`CC(=O)N1C=C([C@H]2CCCCN2C)CCC1` showed an LD50 of 56.3 mg/kg.
For `CC(=O)N1C=C([C@H]2CCCCN2)CCC1`, the LD50 was 94.1 mg/kg.
